Legend:
PI5P4Kγ = system: PI5P4Kγ; design: method as in ref 30 (1), ref 23 (2); settings: 32P-ATP/PI5P incorporation; ref 30 (1), ref 23 (2); cited from earlier work
Choline Kinase alpha = Choline Kinase alpha (Homo sapiens, UniProt P35790); assay: Lipid kinase panel, ADP-Glo; type: biochemical
Description: (§1) Kinase % activity remaining s.d.
(§2) Choline Kinase alpha 101.6 3.2

Choline Kinase beta = Choline Kinase beta (Homo sapiens, UniProt Q9Y259); assay: Lipid kinase panel, ADP-Glo; type: biochemical
Description: as §1, §2

DGK beta = DGK beta (Homo sapiens, UniProt Q9Y6T7); assay: Lipid kinase panel, ADP-Glo; type: biochemical
Description: as §1, §2

DGK gamma = DGK gamma (Homo sapiens, UniProt P49619); assay: Lipid kinase panel, ADP-Glo; type: biochemical
Description: as §1, §2

DGK zeta = DGK zeta (Homo sapiens, UniProt Q13574); assay: Lipid kinase panel, ADP-Glo; type: biochemical
Description: as §1, §2

PI3K beta = PI3K beta (Homo sapiens, UniProt P42338); assay: Lipid kinase panel, ADP-Glo; type: biochemical
Description: as §1, §2

PI3K gamma = PI3K gamma (Homo sapiens, UniProt P48736); assay: Lipid kinase panel, ADP-Glo; type: biochemical
Description: as §1, §2

PI3KA E545K +P85 = PI3KA E545K +P85 (Homo sapiens, UniProt P42336, E545K); assay: Lipid kinase panel, ADP-Glo; type: biochemical; settings: PI3KA E545K +P85, 10 μM
Description: as §1, §2

PI3Ka E524K +P85 = assay: Lipid kinase panel, ADP-Glo; type: biochemical; settings: PI3Ka E524K +P85, 10 μM
Description: as §1, §2

PI3Kalpha = PI3Kalpha (Homo sapiens, UniProt P42336); assay: Lipid kinase panel, ADP-Glo; type: biochemical
Description: as §1, §2

PI4K2a = PI4K2a (Homo sapiens, UniProt Q9BTU6); assay: Lipid kinase panel, ADP-Glo; type: biochemical
Description: as §1, §2

PIK4Ca = PIK4Ca (Homo sapiens, UniProt P42356); assay: Lipid kinase panel, ADP-Glo; type: biochemical
Description: as §1, §2

PIP5K2a = PIP5K2a (Homo sapiens, UniProt P48426); assay: Lipid kinase panel, ADP-Glo; type: biochemical
Description: as §1, §2

SPHK1 = SPHK1 (Homo sapiens, UniProt Q9NYA1); assay: Lipid kinase panel, ADP-Glo; type: biochemical; settings: SPHK1, 10 μM
Description: as §1, §2

SPHK2 = SPHK2 (Homo sapiens, UniProt Q9NRA0); assay: Lipid kinase panel, ADP-Glo; type: biochemical; settings: SPHK2, 10 μM
Description: as §1, §2

JNK1 = JNK1 (Homo sapiens, UniProt P45983); assay: Kinase panel, radiometric 33P filter binding; settings: read-out: % activity remaining
Description: (§3) filter binding assay using 33P-g-ATPat the MRC PPU International Centre for Kinase Profiling, University of

JNK2 = JNK2 (Homo sapiens, UniProt P45984); assay: Kinase panel, radiometric 33P filter binding; settings: read-out: % activity remaining
Description: as §3

p38b MAPK = p38b MAPK (Homo sapiens, UniProt Q15759); assay: Kinase panel, radiometric 33P filter binding; settings: read-out: % activity remaining
Description: as §3

PKA = PKA (Homo sapiens, UniProt P17612); assay: Kinase panel, radiometric 33P filter binding; settings: read-out: % activity remaining
Description: as §3

PKCγ = PKCγ (Homo sapiens, UniProt P05129); assay: Kinase panel, radiometric 33P filter binding; settings: read-out: % activity remaining
Description: as §3

MSK1 = MSK1 (Homo sapiens, UniProt O75582); assay: Kinase panel, radiometric 33P filter binding; settings: read-out: % activity remaining
MNK1 = MNK1 (Homo sapiens, UniProt Q9BUB5); assay: Kinase panel, radiometric 33P filter binding; settings: read-out: % activity remaining
GSK3b = GSK3b (Homo sapiens, UniProt P49841); assay: Kinase panel, radiometric 33P filter binding; settings: read-out: % activity remaining
Description: as §3

Aurora A = Aurora A (Homo sapiens, UniProt O14965); assay: Kinase panel, radiometric 33P filter binding; settings: read-out: % activity remaining
Description: as §3

SIK3 = SIK3 (Homo sapiens, UniProt Q9Y2K2); assay: Kinase panel, radiometric 33P filter binding; settings: read-out: % activity remaining
Description: as §3

TSSK1 = TSSK1 (Homo sapiens, UniProt Q9BXA7); assay: Kinase panel, radiometric 33P filter binding; settings: read-out: % activity remaining
Description: as §3

TTBK1 = TTBK1 (Homo sapiens, UniProt Q5TCY1); assay: Kinase panel, radiometric 33P filter binding; settings: read-out: % activity remaining
Description: as §3

DYRK1A = DYRK1A (Homo sapiens, UniProt Q13627); assay: Kinase panel, radiometric 33P filter binding; settings: read-out: % activity remaining
Description: as §3

SRPK1 = SRPK1 (Homo sapiens, UniProt Q96SB4); assay: Kinase panel, radiometric 33P filter binding; settings: read-out: % activity remaining
Description: as §3

HIPK2 = HIPK2 (Homo sapiens, UniProt Q9H2X6); assay: Kinase panel, radiometric 33P filter binding; settings: read-out: % activity remaining
Description: as §3

PAK5 = PAK5 (Homo sapiens, UniProt Q9P286); assay: Kinase panel, radiometric 33P filter binding; settings: read-out: % activity remaining
ULK1 = ULK1 (Homo sapiens, UniProt O75385); assay: Kinase panel, radiometric 33P filter binding; settings: read-out: % activity remaining
Description: as §3

ULK2 = ULK2 (Homo sapiens, UniProt Q8IYT8); assay: Kinase panel, radiometric 33P filter binding; settings: read-out: % activity remaining
Description: as §3

CSK = CSK (Homo sapiens, UniProt P41240); assay: Kinase panel, radiometric 33P filter binding; settings: read-out: % activity remaining
YES1 = YES1 (Homo sapiens, UniProt P07947); assay: Kinase panel, radiometric 33P filter binding; settings: read-out: % activity remaining
ZAP70 = ZAP70 (Homo sapiens, UniProt P43403); assay: Kinase panel, radiometric 33P filter binding; settings: read-out: % activity remaining
EPH-B3 = EPH-B3 (Homo sapiens, UniProt P54753); assay: Kinase panel, radiometric 33P filter binding; settings: read-out: % activity remaining
Description: as §3

DDR2 = DDR2 (Homo sapiens, UniProt Q16832); assay: Kinase panel, radiometric 33P filter binding; settings: read-out: % activity remaining
Description: as §3

MSK1, sequence (O75582 whole entry): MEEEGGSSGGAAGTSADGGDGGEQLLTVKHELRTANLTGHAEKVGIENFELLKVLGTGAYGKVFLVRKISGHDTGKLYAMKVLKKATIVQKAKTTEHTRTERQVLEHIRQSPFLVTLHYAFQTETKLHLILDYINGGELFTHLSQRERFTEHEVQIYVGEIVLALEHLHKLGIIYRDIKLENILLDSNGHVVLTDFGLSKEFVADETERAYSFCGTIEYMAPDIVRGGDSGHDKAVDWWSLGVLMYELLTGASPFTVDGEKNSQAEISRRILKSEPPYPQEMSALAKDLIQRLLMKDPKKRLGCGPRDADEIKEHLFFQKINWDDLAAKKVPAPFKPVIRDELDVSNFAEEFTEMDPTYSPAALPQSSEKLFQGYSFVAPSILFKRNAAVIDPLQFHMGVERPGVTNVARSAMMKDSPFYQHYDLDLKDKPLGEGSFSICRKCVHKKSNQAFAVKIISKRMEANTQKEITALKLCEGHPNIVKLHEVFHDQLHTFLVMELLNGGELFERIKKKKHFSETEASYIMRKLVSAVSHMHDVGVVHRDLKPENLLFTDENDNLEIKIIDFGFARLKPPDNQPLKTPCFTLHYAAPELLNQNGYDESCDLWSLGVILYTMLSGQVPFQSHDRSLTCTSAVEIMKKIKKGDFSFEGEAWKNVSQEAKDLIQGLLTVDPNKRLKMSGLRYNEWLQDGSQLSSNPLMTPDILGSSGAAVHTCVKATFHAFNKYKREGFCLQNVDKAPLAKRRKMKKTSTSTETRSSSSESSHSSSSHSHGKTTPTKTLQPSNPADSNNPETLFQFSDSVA
PIP5K2a, sequence (P48426 whole entry, species assumed): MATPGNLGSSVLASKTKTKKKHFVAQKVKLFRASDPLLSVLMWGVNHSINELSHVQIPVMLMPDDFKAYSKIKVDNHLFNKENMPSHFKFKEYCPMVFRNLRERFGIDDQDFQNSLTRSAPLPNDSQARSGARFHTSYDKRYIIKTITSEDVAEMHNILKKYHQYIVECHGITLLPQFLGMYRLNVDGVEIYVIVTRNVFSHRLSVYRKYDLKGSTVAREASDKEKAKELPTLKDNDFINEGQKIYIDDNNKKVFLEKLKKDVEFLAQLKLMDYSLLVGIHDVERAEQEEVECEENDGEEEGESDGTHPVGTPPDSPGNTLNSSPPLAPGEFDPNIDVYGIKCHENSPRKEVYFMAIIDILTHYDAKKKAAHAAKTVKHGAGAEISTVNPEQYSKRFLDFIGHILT
SIK3, sequence (Q9Y2K2 whole entry): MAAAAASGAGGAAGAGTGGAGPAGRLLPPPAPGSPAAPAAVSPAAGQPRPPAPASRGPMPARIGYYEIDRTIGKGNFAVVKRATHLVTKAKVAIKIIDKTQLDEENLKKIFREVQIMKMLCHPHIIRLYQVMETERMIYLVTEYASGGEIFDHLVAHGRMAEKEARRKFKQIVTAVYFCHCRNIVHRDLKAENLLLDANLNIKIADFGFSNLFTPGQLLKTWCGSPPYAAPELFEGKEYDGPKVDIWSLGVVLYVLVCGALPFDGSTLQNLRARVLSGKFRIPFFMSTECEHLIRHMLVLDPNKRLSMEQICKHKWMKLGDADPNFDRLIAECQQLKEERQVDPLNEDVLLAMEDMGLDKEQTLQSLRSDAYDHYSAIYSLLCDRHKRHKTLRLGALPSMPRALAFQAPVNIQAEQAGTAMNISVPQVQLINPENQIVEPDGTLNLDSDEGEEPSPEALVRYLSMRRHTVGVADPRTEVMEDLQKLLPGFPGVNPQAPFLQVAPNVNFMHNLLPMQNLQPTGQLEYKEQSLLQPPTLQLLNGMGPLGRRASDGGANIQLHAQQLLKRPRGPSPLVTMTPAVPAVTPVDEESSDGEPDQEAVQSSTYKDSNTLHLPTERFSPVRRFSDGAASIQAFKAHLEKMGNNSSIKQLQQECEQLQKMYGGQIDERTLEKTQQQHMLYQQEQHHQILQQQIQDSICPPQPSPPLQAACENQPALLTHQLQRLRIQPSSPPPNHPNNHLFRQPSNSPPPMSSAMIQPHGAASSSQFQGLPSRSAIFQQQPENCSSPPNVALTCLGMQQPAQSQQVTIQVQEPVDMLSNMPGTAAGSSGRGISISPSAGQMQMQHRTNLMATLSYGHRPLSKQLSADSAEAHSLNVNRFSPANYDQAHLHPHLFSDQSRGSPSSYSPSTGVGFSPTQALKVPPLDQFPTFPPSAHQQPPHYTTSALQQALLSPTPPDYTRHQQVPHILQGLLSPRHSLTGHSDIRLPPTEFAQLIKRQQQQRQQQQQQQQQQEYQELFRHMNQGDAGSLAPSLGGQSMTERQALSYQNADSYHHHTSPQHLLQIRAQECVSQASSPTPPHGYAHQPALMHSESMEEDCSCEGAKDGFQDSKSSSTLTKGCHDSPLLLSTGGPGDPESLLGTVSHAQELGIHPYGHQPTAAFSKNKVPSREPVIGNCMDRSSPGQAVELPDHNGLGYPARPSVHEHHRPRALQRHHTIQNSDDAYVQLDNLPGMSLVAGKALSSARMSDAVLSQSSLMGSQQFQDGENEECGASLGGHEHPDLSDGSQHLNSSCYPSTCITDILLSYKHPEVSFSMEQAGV
PI4K2a, sequence (Q9BTU6 whole entry, species assumed): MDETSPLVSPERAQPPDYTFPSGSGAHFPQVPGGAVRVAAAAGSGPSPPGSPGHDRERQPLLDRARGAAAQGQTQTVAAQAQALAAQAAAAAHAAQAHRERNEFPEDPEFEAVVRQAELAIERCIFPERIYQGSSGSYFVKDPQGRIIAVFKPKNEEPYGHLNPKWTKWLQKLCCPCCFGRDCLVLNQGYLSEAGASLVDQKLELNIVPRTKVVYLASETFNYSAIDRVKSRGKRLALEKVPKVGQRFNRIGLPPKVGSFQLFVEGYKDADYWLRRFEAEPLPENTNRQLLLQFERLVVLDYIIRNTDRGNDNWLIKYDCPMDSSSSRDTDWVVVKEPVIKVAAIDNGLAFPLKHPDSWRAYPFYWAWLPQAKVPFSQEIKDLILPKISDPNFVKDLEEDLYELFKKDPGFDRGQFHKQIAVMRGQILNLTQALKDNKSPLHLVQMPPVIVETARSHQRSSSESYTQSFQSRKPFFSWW
ULK1, sequence (O75385 whole entry): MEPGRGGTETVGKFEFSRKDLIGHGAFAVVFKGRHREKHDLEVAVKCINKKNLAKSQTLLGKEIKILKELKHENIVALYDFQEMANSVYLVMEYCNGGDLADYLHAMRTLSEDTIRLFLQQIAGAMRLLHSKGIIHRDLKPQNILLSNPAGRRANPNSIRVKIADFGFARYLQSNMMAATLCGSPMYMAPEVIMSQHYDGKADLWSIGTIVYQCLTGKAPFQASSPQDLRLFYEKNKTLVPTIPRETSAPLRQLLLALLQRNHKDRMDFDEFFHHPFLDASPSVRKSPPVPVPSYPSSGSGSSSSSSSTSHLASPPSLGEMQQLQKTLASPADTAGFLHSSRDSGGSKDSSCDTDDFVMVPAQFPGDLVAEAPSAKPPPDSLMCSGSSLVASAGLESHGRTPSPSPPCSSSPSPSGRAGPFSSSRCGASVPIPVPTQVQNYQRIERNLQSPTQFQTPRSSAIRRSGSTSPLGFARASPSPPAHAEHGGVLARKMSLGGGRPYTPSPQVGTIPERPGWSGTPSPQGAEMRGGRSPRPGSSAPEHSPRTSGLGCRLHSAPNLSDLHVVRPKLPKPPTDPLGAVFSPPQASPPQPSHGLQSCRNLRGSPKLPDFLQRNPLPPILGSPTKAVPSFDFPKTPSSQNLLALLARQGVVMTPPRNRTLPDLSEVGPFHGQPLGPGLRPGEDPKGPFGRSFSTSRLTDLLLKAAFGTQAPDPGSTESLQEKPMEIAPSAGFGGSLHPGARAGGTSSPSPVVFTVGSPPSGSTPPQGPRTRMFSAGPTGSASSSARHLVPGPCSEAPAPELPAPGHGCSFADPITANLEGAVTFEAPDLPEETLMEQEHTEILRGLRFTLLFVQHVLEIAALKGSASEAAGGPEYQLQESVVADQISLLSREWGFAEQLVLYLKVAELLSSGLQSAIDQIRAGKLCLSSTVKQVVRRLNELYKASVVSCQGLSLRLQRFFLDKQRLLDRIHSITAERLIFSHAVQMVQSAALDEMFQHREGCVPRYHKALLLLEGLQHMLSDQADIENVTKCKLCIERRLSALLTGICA
JNK1, sequence (P45983 whole entry): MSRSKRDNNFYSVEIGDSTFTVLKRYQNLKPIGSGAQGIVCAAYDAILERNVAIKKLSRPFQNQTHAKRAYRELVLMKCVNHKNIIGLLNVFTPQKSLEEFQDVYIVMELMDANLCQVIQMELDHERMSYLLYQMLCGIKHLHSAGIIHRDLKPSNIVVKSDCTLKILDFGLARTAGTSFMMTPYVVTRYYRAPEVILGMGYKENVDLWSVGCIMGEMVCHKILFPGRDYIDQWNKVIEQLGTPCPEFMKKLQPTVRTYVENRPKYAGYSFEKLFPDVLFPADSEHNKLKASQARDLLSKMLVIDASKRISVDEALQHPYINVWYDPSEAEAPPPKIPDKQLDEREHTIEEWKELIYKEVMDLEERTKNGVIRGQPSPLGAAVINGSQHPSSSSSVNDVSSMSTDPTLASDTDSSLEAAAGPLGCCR
YES1, sequence (P07947 whole entry): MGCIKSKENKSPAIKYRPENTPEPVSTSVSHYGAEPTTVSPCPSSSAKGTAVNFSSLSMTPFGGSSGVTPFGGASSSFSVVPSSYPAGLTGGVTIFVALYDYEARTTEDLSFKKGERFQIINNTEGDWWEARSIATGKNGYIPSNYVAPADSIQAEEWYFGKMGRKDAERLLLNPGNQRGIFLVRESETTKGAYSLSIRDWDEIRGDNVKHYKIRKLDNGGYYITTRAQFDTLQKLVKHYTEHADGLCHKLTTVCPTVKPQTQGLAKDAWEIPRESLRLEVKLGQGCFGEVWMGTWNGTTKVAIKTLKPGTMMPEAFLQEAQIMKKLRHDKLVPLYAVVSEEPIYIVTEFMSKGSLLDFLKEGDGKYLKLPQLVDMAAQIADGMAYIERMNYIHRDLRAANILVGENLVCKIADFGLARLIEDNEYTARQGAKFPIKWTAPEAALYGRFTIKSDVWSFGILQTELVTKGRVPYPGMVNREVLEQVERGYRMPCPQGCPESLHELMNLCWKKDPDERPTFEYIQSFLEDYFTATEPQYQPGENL

FC(F)(F)c1ccccc1-c1nc(NCc2cccs2)c2ccccc2n1 [Compound 1, NIH-12848, reference compound]
IC50 (PI5P4Kγ): 2000 to 3000 nM

CC(C)c1ccccc1-c1nc(NCc2ccccn2)c2c(ccn2C)n1 [Compound 40]
remaining activity at 10 µM (Choline Kinase alpha): 102%
remaining activity at 10 µM (Choline Kinase beta): 97.3%
remaining activity at 10 µM (DGK beta): 102%
remaining activity at 10 µM (DGK gamma): 99.4%
remaining activity at 10 µM (DGK zeta): 106%
remaining activity at 10 µM (PI3K beta): 111%
remaining activity at 10 µM (PI3K gamma): 103%
remaining activity at 10 µM (PI3KA E545K +P85): 91.7%
% activity remaining (PI3Ka E524K +P85): 102.0%
remaining activity at 10 µM (PI3Kalpha): 91.4%
remaining activity at 10 µM (PI4K2a): 93.5%
remaining activity at 10 µM (PIK4Ca): 81.1%
remaining activity at 10 µM (PIP5K2a): 100%
remaining activity at 10 µM (SPHK1): 91.8%
remaining activity at 10 µM (SPHK2): 83.8%
remaining activity at 10 µM (JNK1): 86%
remaining activity at 10 µM (JNK2): 110%
remaining activity at 10 µM (p38b MAPK): 94%
remaining activity at 10 µM (PKA): 109%
remaining activity at 10 µM (PKCγ): 77%
remaining activity at 10 µM (MSK1): 95%
remaining activity at 10 µM (MNK1): 104%
remaining activity at 10 µM (GSK3b): 93%
remaining activity at 10 µM (Aurora A): 94%
remaining activity at 10 µM (SIK3): 111%
remaining activity at 10 µM (TSSK1): 96%
remaining activity at 10 µM (TTBK1): 117%
remaining activity at 10 µM (DYRK1A): 101%
remaining activity at 10 µM (SRPK1): 93%
remaining activity at 10 µM (HIPK2): 114%
remaining activity at 10 µM (PAK5): 120%
remaining activity at 10 µM (ULK1): 111%
remaining activity at 10 µM (ULK2): 91%
remaining activity at 10 µM (CSK): 94%
remaining activity at 10 µM (YES1): 115%
remaining activity at 10 µM (ZAP70): 95%
remaining activity at 10 µM (EPH-B3): 105%
remaining activity at 10 µM (DDR2): 90%
